# Reference: PubChem BioAssay AID1918937 (Molecular Pharmacology Branch, DTP, NCI, 2023)
# Values joined by “and” are separate entries in the source; they are usually repeats but may differ in a detail not shown here. Equal values may be shown once.
# System: 521955-158-R2-J5-PDC complex spheroid viability
# Experiment: Anticancer human tumor 521955-158-R2-J5-PDC patient-derived pancreatic carcinoma cell line growth inhibition
# Settings: for viability, T/C: stronger effect = lower value
# Text: Multicellular complex tumor spheroid response to LSD1 Inhibitor Iadademstat in combination with a variety of drugs and investigational agents in selected tumor cell lines
# The current study was undertaken to assess response to LSD1 inhibitors in combination with standard-of-care drugs and investigational agents in solid tumor complex spheroid models as well as in the K-562 leukemia. Complex spheroids include a stromal component modeled by human endothelial cells (HUVEC) and fibroblasts modeled by human mesenchymal stem cells (MSCs). The concentration ranges selected for each drug and investigational agent were based upon clinically achievable concentrations if the clinical Cmax of the agent was known.
# Compounds. The drugs and investigational agents used in this study are listed on Table 1. All of the agents used, including staurosporine (NSC755774) and gemcitabine (NSC613327), were obtained from the Developmental Therapeutics Program, NCI. FDA-approved anticancer drugs are available from the NCI at http://dtp.nci.nih.gov/branches/dscb/oncology_drugset_explanation.html. Drugs and investigational agents were >95% pure by proton nuclear magnetic resonance (NMR) and liquid chromatography/mass spectrometry (LC/MS). Stock solutions were prepared at 400x in DMSO, stored at -70 degrees C, and diluted in fresh medium prior to their use. The final concentration of DMSO in cell culture wells never exceeded 0.25% (v/v). The FDA-approved anticancer drug set is available from the Developmental Therapeutics Program at https://dtp.cancer.gov/organization/dscb/obtaining/available_plates.htm. All drugs and investigational agents were tested over a range starting from a high concentration at or near the clinical Cmax and decreasing in half-log increments. If the clinical Cmax for an agent had not been determined, the highest concentration tested was 10 microM.
# Cell Lines. The patient-derived cancer cell (PDC) lines: 292921-168-R-J2-PDC, K24384-001-R-PDC, and 521955-158-R2-J5-PDC pancreatic carcinomas, 556581-035-R-J1 ovarian carcinoma, 324938-238-R-J1-PDC, 855422-203-R-J1-PDC and 883617-216-R-J1-PDC urothelial bladder carcinomas, 743489-274-T-PDC renal cell carcinoma, 138582-R-J1 Merkel cell tumor, K60290-347-R-J1 and K57222-313-R-J1-PDC glioblastomas, 653999-131-R-J2-PDC, LG0703-F948-PDC, and 349418-098-R-PDC non-small cell lung carcinomas, 885512-296-R-J2-PDC, 171881-019-R-J1-PDC breast carcinomas and 186277-243-T-J2-PDC and 233499-124-R-J2-PDC colon carcinomas were obtained from the NCI Patient-Derived Models Repository (PDMR, https://pdmr.cancer.gov). The established cell lines NCI/ADR-RES (RRID:CVCL_14520 and OVCAR-5 (RRID:CVCL_1628) ovarian carcinomas, 786-O (RRID:CVCL_1051) and A498 (RRID:CVCL_A498) renal cell carcinoma, NCI-H211 (ATCC, cat. CRL-5824; RRID:CVCL_1529), NCI-H196 (ATCC, cat. CRL-5823, RRID:CVCL_1509), SW 1271 (ATCC, cat. CRL-2177, RRID:CVCL_1716) and NCI-H1876 (ATCC, cat. CRL-5902, RRID:CVCL_1503) small cell lung carcinomas, MDA-MB-231 (RRID:CVCL_0062) and MDA-MB-468 (RRID:CVCL_0419)breast carcinomas (10-12). Pooled donor human umbilical vein endothelial cells (HUVEC, Lonza, cat. CC-2519) and human mesenchymal stem cells (hMSC, Lonza, cat. PT-2501) were purchased from Lonza (Walkersville, MD).
# Cell Culture. All cells were maintained in an incubator at 37 degrees C and 5% CO2 with 95% humidity. The PDC lines were cultured according to standard operating procedures established by the NCI PDMR (https://pdmr.cancer.gov). Briefly all PDCs were thawed and cultured in Matrigel-coated flasks prepared with a working solution of 1X Ham's F-12 nutrient mix, without supplementation (Invitrogen, Waltham, MA, cat. 11765054), 100 U/mL penicillin-streptomycin (Invitrogen, cat. 15140122), and 2.5% Matrigel (Corning Inc., Corning, NY, cat. 354248) for the first three passages. […]
# [1] = curve of first compound, second compound 0.1 µM
# [2] = curve of first compound, second compound 0.316 µM
# [3] = curve of first compound, second compound 1 µM
# [4] = curve of first compound, second compound 3.16 µM
# [5] = curve of first compound, second compound 10 µM
# [6] = second compound 0.1 µM, first compound 0.00949 µM
# [7] = second compound 0.1 µM, first compound 0.03 µM
# [8] = second compound 0.1 µM, first compound 0.0949 µM
# [9] = second compound 0.1 µM, first compound 0.3 µM
# [10] = second compound 0.316 µM, first compound 0.00949 µM
# [11] = second compound 0.316 µM, first compound 0.03 µM
# [12] = second compound 0.316 µM, first compound 0.0949 µM
# [13] = second compound 0.316 µM, first compound 0.3 µM
# [14] = second compound 1 µM, first compound 0.00949 µM
# [15] = second compound 1 µM, first compound 0.03 µM
# [16] = second compound 1 µM, first compound 0.0949 µM
# [17] = second compound 1 µM, first compound 0.3 µM
# [18] = second compound 3.16 µM, first compound 0.00949 µM
# [19] = second compound 3.16 µM, first compound 0.03 µM
# [20] = second compound 3.16 µM, first compound 0.0949 µM
# [21] = second compound 3.16 µM, first compound 0.3 µM
# [22] = second compound 10 µM, first compound 0.00949 µM
# [23] = second compound 10 µM, first compound 0.03 µM
# [24] = second compound 10 µM, first compound 0.0949 µM
# [25] = second compound 10 µM, first compound 0.3 µM
# 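Note: spheroids exposed to agents for seven days.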
# 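Throughout, for viability, T/C: percent of DMSO vehicle control luminescence viability.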
structure (smiles),measurement,setting,value
Nc1ccccc1NC(=O)c1ccc(CNC(=O)OCc2cccnc2)cc1 + NC1CC1c1ccc(-c2cccc(O)c2)cc1,IC50,[1],429 nM
same,IC50,[2],393 nM
same,IC50,[3],446 nM
same,IC50,[4],452 nM
same,IC50,[5],403 nM
same,"viability, T/C",[6],89.2%
same,"viability, T/C",[7],101%
same,"viability, T/C",[8],83.6%
same,"viability, T/C",[9],62.8%
same,"viability, T/C","second compound 0.1 µM, first compound 0.949 µM",22.8%
same,"viability, T/C","second compound 0.1 µM, first compound 3 µM",0.44%
same,"viability, T/C",[10],83.7%
same,"viability, T/C",[11],88.8%
same,"viability, T/C",[12],77.9%
same,"viability, T/C",[13],59.9%
same,"viability, T/C","second compound 0.316 µM, first compound 0.949 µM",19.9%
same,"viability, T/C","second compound 0.316 µM, first compound 3 µM",0.28%
same,"viability, T/C",[14],90.4%
same,"viability, T/C",[15],88.5%
same,"viability, T/C",[16],77.1%
same,"viability, T/C",[17],67.8%
same,"viability, T/C","second compound 1 µM, first compound 0.949 µM",19.9%
same,"viability, T/C","second compound 1 µM, first compound 3 µM",1.47%
same,"viability, T/C",[18],84.2%
same,"viability, T/C",[19],89.1%
same,"viability, T/C",[20],82.9%
same,"viability, T/C",[21],70%
same,"viability, T/C","second compound 3.16 µM, first compound 0.949 µM",14.2%
same,"viability, T/C","second compound 3.16 µM, first compound 3 µM",0.23%
same,"viability, T/C",[22],90.3%
same,"viability, T/C",[23],85.1%
same,"viability, T/C",[24],83.7%
same,"viability, T/C",[25],65.3%
same,"viability, T/C","second compound 10 µM, first compound 0.949 µM",5.98%
same,"viability, T/C","second compound 10 µM, first compound 3 µM",0.28%
Nc1ccccc1NC(=O)c1ccc(CNC(=O)OCc2cccnc2)cc1,"viability, T/C",compound 0.00949 µM,105% and 117%
same,"viability, T/C",compound 0.03 µM,102% and 112%
same,"viability, T/C",compound 0.0949 µM,83.6% and 104%
same,"viability, T/C",compound 0.3 µM,56.4% and 70.6%
same,"viability, T/C",compound 0.949 µM,11.1% and 25.3%
same,"viability, T/C",compound 3 µM,0.41% and 0.46%
same,IC50,curve of compound,324 nM and 508 nM
CCc1c2c(nc3ccc(O)cc13)-c1cc3c(c(=O)n1C2)COC(=O)[C@]3(O)CC + NC1CC1c1ccc(-c2cccc(O)c2)cc1,IC50,[1],< 0.949 nM
same,IC50,[2],< 0.949 nM
same,IC50,[3],< 0.949 nM
same,IC50,[4],< 0.949 nM
same,IC50,[5],< 0.949 nM
same,"viability, T/C","second compound 0.1 µM, first compound 0.000949 µM",10.3%
same,"viability, T/C","second compound 0.1 µM, first compound 0.003 µM",8.53%
same,"viability, T/C",[6],1.37%
same,"viability, T/C",[7],0.77%
same,"viability, T/C",[8],0.88%
same,"viability, T/C",[9],1.18%
same,"viability, T/C","second compound 0.316 µM, first compound 0.000949 µM",14%
same,"viability, T/C","second compound 0.316 µM, first compound 0.003 µM",8.17%
same,"viability, T/C",[10],1.18%
same,"viability, T/C",[11],0.73%
same,"viability, T/C",[12],0.87%
same,"viability, T/C",[13],1.5%
same,"viability, T/C","second compound 1 µM, first compound 0.000949 µM",11.7%
same,"viability, T/C","second compound 1 µM, first compound 0.003 µM",9.8%
same,"viability, T/C",[14],1.34%
same,"viability, T/C",[15],1.1%
same,"viability, T/C",[16],0.66%
same,"viability, T/C",[17],1.78%
same,"viability, T/C","second compound 3.16 µM, first compound 0.000949 µM",13.4%
same,"viability, T/C","second compound 3.16 µM, first compound 0.003 µM",8.84%
same,"viability, T/C",[18],1.07%
same,"viability, T/C",[19],0.72%
same,"viability, T/C",[20],0.84%
same,"viability, T/C",[21],2.14%
same,"viability, T/C","second compound 10 µM, first compound 0.000949 µM",17.5%
same,"viability, T/C","second compound 10 µM, first compound 0.003 µM",13%
same,"viability, T/C",[22],1.18%
same,"viability, T/C",[23],0.43%
same,"viability, T/C",[24],0.52%
same,"viability, T/C",[25],0.74%
CC(C)CC(NC(=O)C(Cc1ccccc1)NC(=O)c1cnccn1)B(O)O (configuration not stated) + NC1CCC(NC2CC2c2ccccc2)CC1,IC50,[1],0.491 nM
same,IC50,[2],0.468 nM
same,IC50,[3],0.509 nM
same,IC50,[4],0.525 nM
same,IC50,[5],0.512 nM
same,"viability, T/C","second compound 0.1 µM, first compound 0.000316 µM",80.7%
same,"viability, T/C","second compound 0.1 µM, first compound 0.001 µM",0.24%
same,"viability, T/C","second compound 0.1 µM, first compound 0.00316 µM",0.24%
same,"viability, T/C","second compound 0.1 µM, first compound 0.01 µM",0.06%
same,"viability, T/C","second compound 0.1 µM, first compound 0.0316 µM",0.05%
same,"viability, T/C","second compound 0.1 µM, first compound 0.1 µM",0.94%
same,"viability, T/C","second compound 0.316 µM, first compound 0.000316 µM",75.7%
same,"viability, T/C","second compound 0.316 µM, first compound 0.001 µM",0.23%
same,"viability, T/C","second compound 0.316 µM, first compound 0.00316 µM",0.12%
same,"viability, T/C","second compound 0.316 µM, first compound 0.01 µM",0.04%
same,"viability, T/C","second compound 0.316 µM, first compound 0.0316 µM",0.07%
same,"viability, T/C","second compound 0.316 µM, first compound 0.1 µM",0.21%
same,"viability, T/C","second compound 1 µM, first compound 0.000316 µM",84.9%
same,"viability, T/C","second compound 1 µM, first compound 0.001 µM",0.24%
same,"viability, T/C","second compound 1 µM, first compound 0.00316 µM",0.06%
same,"viability, T/C","second compound 1 µM, first compound 0.01 µM",0.04%
same,"viability, T/C","second compound 1 µM, first compound 0.0316 µM",0.09%
same,"viability, T/C","second compound 1 µM, first compound 0.1 µM",0.2%
same,"viability, T/C","second compound 3.16 µM, first compound 0.000316 µM",88.1%
same,"viability, T/C","second compound 3.16 µM, first compound 0.001 µM",0.24%
same,"viability, T/C","second compound 3.16 µM, first compound 0.00316 µM",0.12%
same,"viability, T/C","second compound 3.16 µM, first compound 0.01 µM",0.04%
same,"viability, T/C","second compound 3.16 µM, first compound 0.0316 µM",0.06%
same,"viability, T/C","second compound 3.16 µM, first compound 0.1 µM",5.74%
same,"viability, T/C","second compound 10 µM, first compound 0.000316 µM",82.9%
same,"viability, T/C","second compound 10 µM, first compound 0.001 µM",4.43%
same,"viability, T/C","second compound 10 µM, first compound 0.00316 µM",0.22%
same,"viability, T/C","second compound 10 µM, first compound 0.01 µM",0.39%
same,"viability, T/C","second compound 10 µM, first compound 0.0316 µM",0.18%
same,"viability, T/C","second compound 10 µM, first compound 0.1 µM",0.72%
